Converted amounts (≈) assume the structure as drawn. The source made the active and inactive calls. No cut-off for these calls is given here.
Experiments:
[1] = system: Bordetella bronchiseptica; assay: Antibacterial activity against Bordetella bronchiseptica ATCC 461 at 400 ug after 18 hr by disk diffusion method; format: functional
Escherichia coli [2] = assay: Antibacterial activity against Escherichia coli ATCC 25922 after 18 hr; format: functional, organism-based
Escherichia coli [3] = assay: Antibacterial activity against Escherichia coli ATCC 10538 after 18 hr; format: functional, organism-based
Candida albicans [4] = assay: Antifungal activity against Candida albicans ATCC 90028 after 18 hr; format: functional; conditions: ATCC 90028, 18 h
Pseudomonas aeruginosa [5] = assay: Antibacterial activity against Pseudomonas aeruginosa ATCC 15442 after 18 hr; format: functional; conditions: ATCC 15442, 18 h
Staphylococcus aureus [6] = assay: Antibacterial activity against Staphylococcus aureus ATCC 29213 after 18 hr; format: functional; conditions: ATCC 29213, 18 h
Escherichia coli [7] = assay: Antibacterial activity against Escherichia coli NCTC 8196 at 400 ug after 18 hr by disk diffusion method; format: functional
Enterococcus hirae [8] = assay: Antibacterial activity against Enterococcus hirae ATCC 10541 at 400 ug after 18 hr by disk diffusion method; format: functional; conditions: for zone of inhibition at 400 µg/disc: ATCC 10541, 18 h, read-out: DIZ
Escherichia coli [9] = assay: Antibacterial activity against Escherichia coli ATCC 10538 at 400 ug after 18 hr by disk diffusion method; format: functional
Staphylococcus aureus [10] = assay: Antibacterial activity against Staphylococcus aureus ATCC 29213 at 400 ug after 18 hr by disk diffusion method; format: functional; conditions: for zone of inhibition at 400 µg/disc: ATCC 29213, 18 h, read-out: DIZ
Candida albicans [11] = assay: Antifungal activity against Candida albicans ATCC 10231 after 18 hr; format: functional; conditions: ATCC 10231, 18 h
Staphylococcus aureus [12] = assay: Antibacterial activity against Staphylococcus aureus ATCC 25923 after 18 hr; format: functional; conditions: ATCC 25923, 18 h
Staphylococcus aureus [13] = assay: Antibacterial activity against Staphylococcus aureus NCTC 4163 at 400 ug after 18 hr by disk diffusion method; format: functional; conditions: for zone of inhibition at 400 µg/disc: NCTC 4163, 18 h, read-out: DIZ
Escherichia coli [14] = assay: Antibacterial activity against Escherichia coli ATCC 25922 at 400 ug after 18 hr by disk diffusion method; format: functional
Staphylococcus aureus [15] = assay: Antibacterial activity against Staphylococcus aureus ATCC 6538P at 400 ug after 18 hr by disk diffusion method; format: functional; conditions: for zone of inhibition at 400 µg/disc: read-out: DIZ
Pseudomonas aeruginosa [16] = assay: Antibacterial activity against Pseudomonas aeruginosa ATCC 15442 at 400 ug after 18 hr by disk diffusion method; format: functional; conditions: for zone of inhibition at 400 µg/disc: ATCC 15442, 18 h, read-out: DIZ
Candida parapsilosis [17] = assay: Antifungal activity against Candida parapsilosis ATCC 22019 after 18 hr; format: functional; conditions: Lodderomyces parapsilosis, ATCC 22019, 18 h
Proteus vulgaris [18] = assay: Antibacterial activity against Proteus vulgaris NCTC 4635 at 400 ug after 18 hr by disk diffusion method; format: functional; conditions: for zone of inhibition at 400 µg/disc: NCTC 4635, 18 h, read-out: DIZ
Candida albicans [19] = assay: Antifungal activity against Candida albicans ATCC 10231 at 400 ug after 24 to 48 hr by disk diffusion method; format: functional; conditions: for zone of inhibition at 400 µg/disc: read-out: DIZ
Escherichia coli [20] = assay: Antibacterial activity against Escherichia coli NCTC 8196 after 18 hr; format: functional, organism-based
[21] = system: Human immunodeficiency virus 1; assay: Antiviral activity against Human immunodeficiency virus 1 infected human MT4 cells assessed as inhibition of virus-induced cytopathogenicity after 4 days by MTT assay; format: functional, organism-based; conditions: Human immunodeficiency virus 1, MT4, 96 h
Staphylococcus aureus [22] = assay: Antibacterial activity against Staphylococcus aureus ATCC 25923 at 400 ug after 18 hr by disk diffusion method; format: functional; conditions: for zone of inhibition at 400 µg/disc: ATCC 25923, 18 h, read-out: DIZ
Proteus vulgaris [23] = assay: Antibacterial activity against Proteus vulgaris NCTC 4635 after 18 hr; format: functional; conditions: NCTC 4635, 18 h
Candida albicans [24] = assay: Antifungal activity against Candida albicans ATCC 90028 at 400 ug after 24 to 48 hr by disk diffusion method; format: functional; conditions: for zone of inhibition at 400 µg/disc: read-out: DIZ
Staphylococcus aureus [25] = assay: Antibacterial activity against Staphylococcus aureus ATCC 6538P after 18 hr; format: functional
Pseudomonas aeruginosa [26] = assay: Antibacterial activity against Pseudomonas aeruginosa NCTC 6749 at 400 ug after 18 hr by disk diffusion method; format: functional, organism-based
Staphylococcus aureus [27] = assay: Antibacterial activity against Staphylococcus aureus NCTC 4163 after 18 hr; format: functional; conditions: NCTC 4163, 18 h
[28] = Cytotoxicity against Homo sapiens (human) MT4 cells after 96 hr by MTT assay; format: cell-based
Pseudomonas aeruginosa [29] = assay: Antibacterial activity against Pseudomonas aeruginosa NCTC 6749 after 18 hr; format: functional, organism-based
Candida parapsilosis [30] = assay: Antifungal activity against Candida parapsilosis ATCC 22019 at 400 ug after 24 to 48 hr by disk diffusion method; format: functional; conditions: for zone of inhibition at 400 µg/disc: Lodderomyces parapsilosis, read-out: DIZ
[31] = system: Bordetella bronchiseptica; assay: Antibacterial activity against Bordetella bronchiseptica ATCC 461 after 18 hr; format: functional, organism-based
Bacillus subtilis [32] = assay: Antibacterial activity against Bacillus subtilis ATCC 6633 at 400 ug after 18 hr by disk diffusion method; format: functional; conditions: for zone of inhibition at 400 µg/disc: ATCC 6633, 18 h, read-out: DIZ
Bacillus subtilis [33] = assay: Antibacterial activity against Bacillus subtilis ATCC 6633 after 18 hr; format: functional; conditions: ATCC 6633, 18 h
Enterococcus hirae [34] = assay: Antibacterial activity against Enterococcus hirae ATCC 10541 after 18 hr; format: functional; conditions: ATCC 10541, 18 h

SMILES | diameter of the inhibition zone (DIZ) [1] | MIC (Escherichia coli [2]) | MIC (Escherichia coli [3]) | MIC (Candida albicans [4]) | MIC (Pseudomonas aeruginosa [5]) | MIC (Staphylococcus aureus [6]) | diameter of the inhibition zone (DIZ) (Escherichia coli [7]) | zone of inhibition at 400 µg/disc (Enterococcus hirae [8]) | diameter of the inhibition zone (DIZ) (Escherichia coli [9]) | zone of inhibition at 400 µg/disc (Staphylococcus aureus [10]) | MIC (Candida albicans [11]) | MIC (Staphylococcus aureus [12]) | zone of inhibition at 400 µg/disc (Staphylococcus aureus [13]) | diameter of the inhibition zone (DIZ) (Escherichia coli [14]) | zone of inhibition at 400 µg/disc (Staphylococcus aureus [15]) | zone of inhibition at 400 µg/disc (Pseudomonas aeruginosa [16]) | MIC (Candida parapsilosis [17]) | zone of inhibition at 400 µg/disc (Proteus vulgaris [18]) | zone of inhibition at 400 µg/disc (Candida albicans [19]) | diameter of the inhibition zone (DIZ) (Pseudomonas aeruginosa [26]) | also measured
CC1(C)Cc2c(Br)c(Br)c(Br)c(O)c2O1 | inactive | inactive | inactive | 200 µg/mL (≈ 499 µM) | 12.5 µg/mL (≈ 31.2 µM) | 25 µg/mL (≈ 62.4 µM) | inactive | 16 mm | inactive | 18 mm | 200 µg/mL (≈ 499 µM) | 25 µg/mL (≈ 62.4 µM) | 17 mm | inactive | 19 mm | 22 mm | 200 µg/mL (≈ 499 µM) | 15 mm | 13 mm | inactive | MIC (Escherichia coli [20]): inactive; EC50 [21]: > 60 µM; zone of inhibition at 400 µg/disc (Staphylococcus aureus [22]): 18 mm; MIC (Proteus vulgaris [23]): 12.5 µg/mL (≈ 31.2 µM); zone of inhibition at 400 µg/disc (Candida albicans [24]): 14 mm; MIC (Staphylococcus aureus [25]): 25 µg/mL (≈ 62.4 µM); MIC (Staphylococcus aureus [27]): 25 µg/mL (≈ 62.4 µM); CC50 at 96 h [28]: 60 µM; MIC (Pseudomonas aeruginosa [29]): inactive; zone of inhibition at 400 µg/disc (Candida parapsilosis [30]): 13 mm; MIC [31]: inactive; zone of inhibition at 400 µg/disc (Bacillus subtilis [32]): 21 mm; MIC (Bacillus subtilis [33]): 12.5 µg/mL (≈ 31.2 µM); MIC (Enterococcus hirae [34]): 50 µg/mL (≈ 125 µM)
CC1(C)Cc2c(Br)c(Br)c(Br)c(OCC(O)CN3CCCCC3)c2O1 (centres undefined) | inactive | inactive | inactive | 100 µg/mL (≈ 184 µM) | 25 µg/mL (≈ 46.1 µM) | 100 µg/mL (≈ 184 µM) | inactive | 17 mm | inactive | 16 mm | 100 µg/mL (≈ 184 µM) | 50 µg/mL (≈ 92.2 µM) | 18 mm | inactive | 17 mm | 20 mm | 100 µg/mL (≈ 184 µM) | 20 mm | 18 mm | inactive | MIC (Escherichia coli [20]): inactive; zone of inhibition at 400 µg/disc (Staphylococcus aureus [22]): 16 mm; MIC (Proteus vulgaris [23]): 50 µg/mL (≈ 92.2 µM); zone of inhibition at 400 µg/disc (Candida albicans [24]): 18 mm; MIC (Staphylococcus aureus [25]): 50 µg/mL (≈ 92.2 µM); MIC (Staphylococcus aureus [27]): 50 µg/mL (≈ 92.2 µM); MIC (Pseudomonas aeruginosa [29]): inactive; zone of inhibition at 400 µg/disc (Candida parapsilosis [30]): 18 mm; MIC [31]: inactive; zone of inhibition at 400 µg/disc (Bacillus subtilis [32]): 19 mm; MIC (Bacillus subtilis [33]): 12.5 µg/mL (≈ 23.1 µM); MIC (Enterococcus hirae [34]): 50 µg/mL (≈ 92.2 µM)
CC1(C)Cc2cccc(O)c2O1 | inactive |  |  |  |  |  | inactive |  | inactive |  |  |  |  | inactive |  |  |  |  |  | inactive | diameter of the inhibition zone (DIZ) (Enterococcus hirae [8]): inactive; diameter of the inhibition zone (DIZ) (Staphylococcus aureus [10]): inactive; diameter of the inhibition zone (DIZ) (Staphylococcus aureus [13]): inactive; diameter of the inhibition zone (DIZ) (Staphylococcus aureus [15]): inactive; diameter of the inhibition zone (DIZ) (Pseudomonas aeruginosa [16]): inactive; diameter of the inhibition zone (DIZ) (Proteus vulgaris [18]): inactive; diameter of the inhibition zone (DIZ) (Candida albicans [19]): inactive; EC50 [21]: > 100 µM; diameter of the inhibition zone (DIZ) (Staphylococcus aureus [22]): inactive; diameter of the inhibition zone (DIZ) (Candida albicans [24]): inactive; CC50 at 96 h [28]: 100 µM; diameter of the inhibition zone (DIZ) (Candida parapsilosis [30]): inactive; diameter of the inhibition zone (DIZ) (Bacillus subtilis [32]): inactive

Reference: ChEMBL document CHEMBL3045826, “Synthesis of new derivatives of 2,2-dimethyl-2,3-dihydro-7-benzo[b]furanol with potential antimicrobial activity” (Med Chem Res, 2009)
